Test results: patent US20160120915A1, “METHODS FOR MANIPULATING IMMUNE RESPONSES BY ALTERING MICROBIOTA” (NEW YORK UNIVERSITY, priority 2013, published 2016)
Structures can show the parent of a compound that is named as a salt.

Assays:
pancreatic islets = test: NOD: pancreatic insulitis scoring in 6-week old mice; type: in vivo; settings: p<0.05
Description: Pancreata from 6-week-old control, STAT and PAT mice were fixed in modified Bouin's fixative (17 ml saturated aqueous picric acid, 1 ml glacial acetic acid, 2 ml 38-40% formalin) and paraffin embedded, cut, and stained with Aldehyde Fuchsin for insulitis scoring (Leiter, Curr Protoc Immunol. 2001; Chapter 15:Unit 15 9). Five sections were made for each pancreas. Each of the sections is 5 microns thick with a 70 microns gap between sections. Insulitis was scored on a scale of 0-4: 0, normal islet; 1, peri-insular leukocyte aggregates; 2, leukocyte infiltration <25%; 3, leukocyte infiltration >25%, but <75%; 4, leukocyte infiltration >75% and β-cell destruction. For each mouse, an insulitis score was calculated based on the following formula: (total score for all islets)/(4×number of islets examined) (Forestier et al., Journal of immunology. 2007; 178, 1415). […] The most severely affected islet was scored from each section. Insulitis was scored on a scale of 0-4: 0, normal islet; 1, peri-insular leukocyte aggregates; 2, leukocyte infiltration <25%; 3, leukocyte infiltration >25%, but <75%; 4, leukocyte infiltration >75% and β-cell destruction, according to standard criteria. For the females, we scored at least 24 islets per group (5 mice per group). […] For the males, 25 islets were scored for the control and PAT group (5 mice per group), and 15 islets from the STAT group (3 mice). […]

[1] = tested on: intestinal microbial community; test: NOD: 16S rRNA V4 sequencing of fecal, cecal and ileal microbiota; type: in vivo, NOD mice; settings: for fecal microbial community structure (PCoA, unweighted unifrac): all time points
Description: Fecal pellets were collected at least weekly from weaning at 3 weeks of age until the study termination at 31 weeks of age, and stored at −20° C. until processing. DNA was extracted from fecal pellets using the PowerLyzer™ PowerSoil® DNA Isolation Kit (MoBio, Carlsbad Calif.) and stored at −20° C. Cecal and ileal samples were collected upon necropsy at 6 weeks of age, upon diabetes development, or at the termination of the experiment at […] of age, and extracted using the PowerLyzer™ PowerSoil® DNA Isolation Kit.
Fecal samples collected at 3, 6, 10, and 13 weeks of age, and cecal and ileal samples collected at 6 weeks of age were used for sequencing. The V4 region of the 16S rRNA gene was amplified using universal primers 515 forward primer (5′ GTGCCAGCMGCCGCGGTAA 3′ SEQ ID NO: 54) and 806 reverse primer (5′ […] 3′ SEQ ID NO: 55) [Escherichia coli strain 83972 sequence (greengenes accession no. prokM-SA_id:470367] linked to a 12 base Goley barcode for multiplexing (Caporaso et al., The ISME Journal 2012; 6:1621-4. Caporaso et al., Proc. Natl. Acad. Sci. USA, 2011; 108 Suppl 1:4516-22). Sequencing was performed on the Miseq platform with a 15% PhiX spike.
The sequences were analyzed using the macqiime 1.7.0 software (Caporaso et al., Nature Methods 2010; 7:335-6). Sequences were aligned using the Ribosomal Database Project (RDP) classifier (Wang et al., Applied and Environmental Microbiology 2007; 73:5261-7). Taxonomy was assigned based on the GreenGenes May 2013. For alpha diversity measurements, observed number of species and phylogenic distance (PD) were calculated. For beta diversity measurements, unweighted unifrac distances were calculated (Lozupone C, Knight R., Applied and Environmental Microbiology 2005; 71:8228-35). The unweighted unifrac distances were used for principal coordinates analysis (PCoA), and visualized using the KiNG software. Further sequencing analysis and correlations were performed using the phyloseq and ellipse packages in R.

Structure (SMILES)	insulitis (score 0-4) (pancreatic islets; 6-week old NOD males, vs control or STAT males)	cecal and ileal microbial composition ([1]; 6-week old NOD mice, Adonis test)	Bacteroides ([1]; PAT samples after the first antibiotic pulse)	Verrucomicrobia (phylum level) ([1]; PAT samples after the first antibiotic pulse, vs control)	Akkermansia muciniphila (species level) ([1]; PAT samples starting at 3 weeks)	Phylogenic diversity (PD) ([1]; all sample times, all sample types, males and females, vs controls)	OTU richness ([1]; all sample times, all sample types, males and females, vs controls, FDR p<0.05)	fecal microbial community structure (PCoA, unweighted unifrac) ([1]; males and females)	relative abundance of Bifidobacterium genus ([1]; females and males)	relative abundance of three detectable Bifidobacterium species (B. animalis, B. adolescentis, B. pseudolongum) ([1]; females and males)	relative abundance of unnamed Bifidobacterium species ([1]; females and males)	intragroup beta diversity (unweighted Unifrac distance) ([1]; male NOD mice, vs controls)	islet inflammation (insulitis score 0-4) (pancreatic islets; 6-week old NOD females, vs controls)	Akkermansia muciniphila (species level) ([1]; STAT male cecal and ileal samples, vs controls (less than PAT))	prevalence of Bifidobacterium sp. ([1]; STAT-antibiotic-treated NOD mice vs controls)	bloom in Verrucomicrobia ([1]; cecal and ileal samples from male STAT mice)	abundance of all 3 named Bifidobacterium species ([1]; females)	OTU richness ([1]; females, only at 3 weeks of age, vs controls)	OTU richness ([1]; males, at 3 and 6 weeks of age, vs controls)
CC[C@H]1OC(=O)C[C@@H](O)[C@H](C)[C@@H](O[C@@H]2O[C@H](C)[C@@H](O[C@H]3C[C@@](C)(O)[C@@H](O)[C@H](C)O3)[C@H](N(C)C)[C@H]2O)[C@@H](CC=O)C[C@@H](C)C(=O)/C=C/C(C)=C/[C@@H]1CO[C@@H]1O[C@H](C)[C@@H](O)[C@@H](OC)[C@H]1OC [Tylosin, Tylosin tartrate]	significantly more	significantly alters	decrease	large bloom	large bloom	lower	lower	cluster distinctly from controls	decreases	decreases	decreases	lower	–	–	–	–	–	–	–
CC1(C)S[C@@H]2[C@H](NC(=O)COc3ccccc3)C(=O)N2[C@H]1C(=O)[O-].[K+] [STAT, penicillin VK]	–	–	–	–	–	–	–	essentially overlap	–	–	–	–	significantly more	more	not different	greater than in controls but less than in PAT	increased abundance	significantly lower	significantly lower
